Data published in ChEMBL document CHEMBL4680246, “Design, synthesis and biological evaluation of novel O-carbamoyl ferulamide derivatives as multi-target-directed ligands for the treatment of Alzheimer's disease” (Eur J Med Chem, 2020).
Activity calls are given as the source filed them. No cut-off for these calls is given here.

How the values were obtained:
HT-22 [1] = experiment: Down regulation of tau protein expression in mouse HT22 cells transfected with pRK5-GFP-Tau plasmid at 2.5 to 20 uM by Western blot analysis; type: functional, cell-based; details: dose 2.5-20 µM
[2] = Toxicity in Zebrafish assessed as mortality at 50 ug/ml relative to control; design: species or system Danio rerio; details: in vivo, at 50 µg/mL
[3] = Toxicity in AlCl3-induced Zebrafish model of Alzheimer's disease assessed as mortality at 2.5 ug/ml relative to control; design: species or system Danio rerio; details: in vivo, at 2.5 µg/mL
[4] = Toxicity in Zebrafish assessed as small or misshapen jaw at 6.25 ug/ml relative to control; design: species or system Danio rerio; details: in vivo, at 6.25 µg/mL
Danio rerio [5] = species: Danio rerio; experiment: Antialzheimer activity in AlCl3-induced Zebrafish model of Alzheimer's disease assessed as increase in motility distance at 0.33 ug/ml relative to control; type: functional; details: dose 0.33 µg/ml
[6] = biological target: Amyloid-beta precursor protein (Homo sapiens) (UniProt P05067); experiment: Inhibition of self-induced Amyloid beta (1 to 42 residues) (unknown origin) aggregation at 25 uM measured after 24 hrs by thioflavin T-based fluorimetric assay relative to control
HT-22 [7] = experiment: Cytotoxicity against mouse HT22 cells assessed as effect on cell viability at 10 uM by MTT assay; type: cell-based; details: ht-22, 10 µM
Acetylcholinesterase [8] = biological target: Acetylcholinesterase (Homo sapiens, UniProt P22303); experiment: Inhibition of human erythrocytes AChE using acetylcholine iodide as substrate incubated for 15 mins by Ellman's method
Danio rerio [9] = species: Danio rerio; experiment: Antialzheimer activity in AlCl3-induced Zebrafish model of Alzheimer's disease assessed as motility distance at […] (reference value: 5346 mm); type: functional; details: dose 0.11 µg/ml
Danio rerio [10] = species: Danio rerio; experiment: Antialzheimer activity in AlCl3-induced Zebrafish model of Alzheimer's disease assessed as increase in motility distance at […] relative to control; type: functional; details: dose 0.11 µg/ml
Danio rerio [11] = species: Danio rerio; experiment: Antialzheimer activity in AlCl3-induced Zebrafish model of Alzheimer's disease assessed as change in motility speed at 1 ug/ml (reference value: 1.08 mm/s); type: functional; details: dose 1 µg/ml
[12] = Toxicity in Zebrafish assessed as mortality at 3.125 ug/ml relative to control; design: species or system Danio rerio; details: in vivo, at 3.125 µg/mL
HT-22 [13] = experiment: Down regulation of APP protein expression in mouse HT22 cells transfected with pEGFP-N1-APP plasmid at 10 to 20 uM by Western blot analysis; type: functional, cell-based; details: dose 10-20 µM
[14] = Toxicity in Zebrafish assessed as absence of blood flow at 6.25 ug/ml relative to control; design: species or system Danio rerio; details: at 6.25 µg/mL
Danio rerio [15] = species: Danio rerio; experiment: Protection against amyloid beta (1 to 42)-induced zebrafish model of vascular injury assessed as vascular injury rate at […] (reference value: 73.3%); type: functional; details: dose 0.11 µg/ml
[16] = Effect on tau protein level in mouse HT22 cells transfected with pRK5-GFP-Tau P301L plasmid assessed as fluorescence intensity at 2.5 uM by fluorescence microscopy (reference value: 33.6); type: functional, HT-22
Danio rerio [17] = species: Danio rerio; experiment: Protection against amyloid beta (1 to 42)-induced zebrafish model of vascular injury assessed as reduction in vascular injury at 0.33 ug/ml relative to control; type: functional; details: dose 0.33 µg/ml
[18] = Effect on tau protein level in mouse HT22 cells transfected with pRK5-GFP-Tau P301L plasmid assessed as fluorescence intensity at 10 uM by fluorescence microscopy (reference value: 33.6); type: functional, HT-22
[19] = Toxicity in AlCl3-induced Zebrafish model of Alzheimer's disease assessed as mortality at 10 ug/ml relative to control; design: species or system Danio rerio; details: in vivo, at 10 µg/mL
[20] = Effect on APP protein level in mouse HT22 cells transfected with pEGFP-N1-APP plasmid assessed as fluorescence intensity at 10 uM by fluorescence microscopy (reference value: 33.2); type: functional, HT-22
Danio rerio [21] = species: Danio rerio; experiment: Antialzheimer activity in AlCl3-induced Zebrafish model of Alzheimer's disease assessed as increase in motility speed at […] relative to control; type: functional; details: dose 0.11 µg/ml
SH-SY5Y = experiment: Cytotoxicity against human SH-SY5Y cells up to 50 uM by MTT assay; type: cell-based
[22] = Toxicity in Zebrafish assessed as mortality at 25 ug/ml relative to control; design: species or system Danio rerio; details: in vivo, at 25 µg/mL
[23] = Acute toxicity in Kunming mouse assessed as dyspnea at 250 to 1000 mg/kg; type: organism-based; details: in vivo, dose 250-1000 mg/kg
Acetylcholinesterase [24] = biological target: Acetylcholinesterase (Electrophorus electricus, UniProt O42275); experiment: Inhibition of Electrophorus electricus AChE using acetylcholine iodide as substrate incubated for 15 mins by Ellman's method
Mus musculus [25] = experiment: Improvement in cognitive impairment in scopolamine-induced mouse model of amnesia assessed as change in spontaneous alteration at 20 mg/kg by Y-maze test (reference value: 40.8%); type: functional
[26] = Effect on tau protein level in mouse HT22 cells transfected with pRK5-GFP-Tau plasmid assessed as fluorescence intensity at 5 uM by fluorescence microscopy (Rvb <= 40.9); type: functional, HT-22
HT-22 [27] = experiment: Effect on tau protein level in mouse HT22 cells transfected with pRK5-GFP-Tau P301L plasmid assessed as reduction in fluorescence intensity by fluorescence microscopy; type: functional, cell-based
L02 = experiment: Cytotoxicity against human LO2 cells assessed as reduction in cell viability at 25 uM by MTT assay; type: cell-based; details: l02, 25 µM
[28] = Toxicity in Zebrafish assessed as degenerating muscle within the somites at 6.25 ug/ml relative to control; design: species or system Danio rerio; details: in vivo, at 6.25 µg/mL
[29] = Toxicity in Zebrafish assessed as induction of yolk sac absorption delay at 1.04 ug/ml relative to control; design: species or system Danio rerio; details: in vivo, at 1.04 µg/mL
[30] = Acute toxicity in Kunming mouse assessed as damage in lung at 50 to 1000 mg/kg measured after 7 days; type: organism-based; details: in vivo, 168 h, dose 50-1000 mg/kg, time 7 day
Mus musculus [31] = experiment: Improvement in cognitive impairment in scopolamine-induced mouse model of amnesia assessed as increase in spontaneous alteration at 5 to 10 mg/kg by Y-maze test; type: functional, organism-based; details: dose 5-10 mg/kg
[32] = Drug metabolism in human liver microsomes by HPLC analysis; type: ADME, Microsome
Danio rerio [33] = species: Danio rerio; experiment: Protection against amyloid beta (1 to 42)-induced zebrafish model of vascular injury assessed as vascular injury rate at 0.33 ug/ml (reference value: 73.3%); type: functional; details: dose 0.33 µg/ml
[34] = Toxicity in Zebrafish assessed as small or misshapen brain at 6.25 ug/ml relative to control; type: tissue-based, Danio rerio; details: in vivo, at 6.25 µg/mL
[35] = Toxicity in Zebrafish assessed as mortality at 12.5 ug/ml relative to control; design: species or system Danio rerio; details: in vivo, at 12.5 µg/mL
[36] = Effect on tau protein level in mouse HT22 cells transfected with pRK5-GFP-Tau plasmid assessed as fluorescence intensity at 20 uM by fluorescence microscopy (Rvb <= 40.9); type: functional, HT-22
[37] = Toxicity in Zebrafish assessed as death at 6.25 ug/ml relative to control; design: species or system Danio rerio; details: in vivo, at 6.25 µg/mL, read-out: Activity

Sequence of Acetylcholinesterase (Homo sapiens, UniProt P22303) (P22303 whole entry): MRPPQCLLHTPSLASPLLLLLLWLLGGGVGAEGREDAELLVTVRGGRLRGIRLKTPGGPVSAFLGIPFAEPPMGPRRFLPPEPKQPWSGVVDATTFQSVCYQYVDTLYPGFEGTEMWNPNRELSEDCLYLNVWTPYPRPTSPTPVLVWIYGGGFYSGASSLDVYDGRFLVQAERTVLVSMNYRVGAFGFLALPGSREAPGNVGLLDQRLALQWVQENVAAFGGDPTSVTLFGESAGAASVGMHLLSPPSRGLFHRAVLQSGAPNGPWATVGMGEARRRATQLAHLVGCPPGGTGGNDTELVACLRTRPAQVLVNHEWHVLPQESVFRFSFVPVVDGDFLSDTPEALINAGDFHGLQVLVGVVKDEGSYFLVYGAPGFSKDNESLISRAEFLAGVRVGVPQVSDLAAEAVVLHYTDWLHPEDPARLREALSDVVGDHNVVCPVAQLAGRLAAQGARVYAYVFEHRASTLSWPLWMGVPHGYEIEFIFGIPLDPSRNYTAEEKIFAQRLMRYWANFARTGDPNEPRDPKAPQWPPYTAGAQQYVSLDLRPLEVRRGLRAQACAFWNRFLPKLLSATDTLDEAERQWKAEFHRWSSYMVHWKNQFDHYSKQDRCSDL
Sequence of Amyloid-beta precursor protein (Homo sapiens) (P05067 whole entry, the tested form may be a part): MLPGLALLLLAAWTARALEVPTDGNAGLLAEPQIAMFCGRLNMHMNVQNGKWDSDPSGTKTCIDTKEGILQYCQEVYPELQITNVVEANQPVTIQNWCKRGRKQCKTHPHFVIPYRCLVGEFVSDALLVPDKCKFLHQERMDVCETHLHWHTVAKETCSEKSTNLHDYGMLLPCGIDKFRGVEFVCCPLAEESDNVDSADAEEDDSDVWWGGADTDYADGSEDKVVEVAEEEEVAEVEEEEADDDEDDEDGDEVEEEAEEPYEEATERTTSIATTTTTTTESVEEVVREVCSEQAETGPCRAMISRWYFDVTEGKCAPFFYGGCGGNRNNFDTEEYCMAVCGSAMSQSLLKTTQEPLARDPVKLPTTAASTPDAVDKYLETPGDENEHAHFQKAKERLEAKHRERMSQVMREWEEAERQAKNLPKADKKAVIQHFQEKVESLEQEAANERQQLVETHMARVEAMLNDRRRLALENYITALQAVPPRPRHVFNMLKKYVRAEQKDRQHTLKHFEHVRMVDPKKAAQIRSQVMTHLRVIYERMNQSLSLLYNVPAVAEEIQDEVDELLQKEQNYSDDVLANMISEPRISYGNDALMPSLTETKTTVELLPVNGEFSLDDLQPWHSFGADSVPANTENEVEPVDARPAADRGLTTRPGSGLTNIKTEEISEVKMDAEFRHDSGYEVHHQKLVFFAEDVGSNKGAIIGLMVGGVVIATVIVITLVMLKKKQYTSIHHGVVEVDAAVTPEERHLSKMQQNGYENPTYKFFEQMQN
Sequence of Acetylcholinesterase (Electrophorus electricus, UniProt O42275) (O42275 whole entry): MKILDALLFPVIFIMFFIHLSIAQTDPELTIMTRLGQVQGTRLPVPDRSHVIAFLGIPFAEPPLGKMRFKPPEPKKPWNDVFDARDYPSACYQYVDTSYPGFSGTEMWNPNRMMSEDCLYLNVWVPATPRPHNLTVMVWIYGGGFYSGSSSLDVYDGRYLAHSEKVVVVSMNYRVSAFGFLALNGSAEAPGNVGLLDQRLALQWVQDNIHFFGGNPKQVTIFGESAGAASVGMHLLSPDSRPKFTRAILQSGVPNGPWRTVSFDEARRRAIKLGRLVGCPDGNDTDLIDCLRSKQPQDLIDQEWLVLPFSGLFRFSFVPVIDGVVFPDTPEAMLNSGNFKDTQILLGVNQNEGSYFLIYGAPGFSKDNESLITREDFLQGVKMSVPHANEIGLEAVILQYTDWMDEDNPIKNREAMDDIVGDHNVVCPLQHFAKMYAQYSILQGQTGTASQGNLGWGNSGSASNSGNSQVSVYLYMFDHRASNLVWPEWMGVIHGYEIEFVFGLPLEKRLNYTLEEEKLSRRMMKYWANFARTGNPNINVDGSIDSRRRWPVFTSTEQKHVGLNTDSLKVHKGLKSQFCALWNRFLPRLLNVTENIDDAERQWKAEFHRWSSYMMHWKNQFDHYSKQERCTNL

With CCN(C)C(=O)Oc1ccc(/C=C/C(=O)N2CCc3ccccc3C2)cc1OC the Activity (HT-22 [1]) was “Active”, the mortality at 50 ug/ml [2] was 100% and the mortality at 2.5 ug/ml [3] was 0%. For the same molecule, the Activity [4] was 33.3%, the Efficacy (Danio rerio [5]) was 72.6% and the inhibition [6] was 58.2%. For the same molecule, the Activity (HT-22 [7]) was “Non-Toxic”, the IC50 (Acetylcholinesterase [8]) was 10.6 µM and the Activity (Danio rerio [9]) was “<=6418 mm”. It also gave an Efficacy (Danio rerio [10]) of 54.9%, an Activity (Danio rerio [11]) of 2.15 millimeter/sec and a mortality at 3.125 ug/ml [12] of 0%. The Activity (HT-22 [13]) was “Active”, the Activity [14] was 16.7% and the Activity (Danio rerio [15]) was 80%. The Flu intensity [16] was 30.3, the Efficacy (Danio rerio [17]) was 9% and the Flu intensity [18] was 18.7. The mortality at 10 ug/ml [19] was 0%, the Flu intensity [20] was 13.3 and the Efficacy (Danio rerio [21]) was 57.3%. The Activity (SH-SY5Y) was “Non-Toxic”, the mortality at 25 ug/ml [22] was 100% and the Activity [23] was “Toxic”. The IC50 (Acetylcholinesterase [24]) was 11.3 µM, the Activity (Mus musculus [25]) was 61.6% and the Flu intensity [26] was 32.6. For the same molecule, the Activity (HT-22 [27]) was “Dose-dependent effect”, the Activity (L02) was “Non-Toxic” and the Activity [28] was 36.7%. For the same molecule, the Activity [29] was 13.3%, the Activity [30] was “Non-Toxic” and the Activity (Mus musculus [31]) was “Active”. The Drug metabolism [32] was “Metabolite_Detected”, the Activity (Danio rerio [33]) was 66.7% and the Activity [34] was 26.7%. The mortality at 12.5 ug/ml [35] was 100%, the Flu intensity [36] was 29.2 and the mortality at 6.25 ug/ml [37] was 13.3%.
